Assay results from ChEMBL document CHEMBL1201862, “PubChem BioAssay data set” (2004).
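Where inhibition never reached the appropriate level, the endpoint shown equals the highest concentration tested. Otherwise, values were interpolated linearly from a five-concentration, 48-hour dose response in 96-well plates. GI50: concentration for 50% inhibition of growth.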 The source made the active and inactive calls. Rule as the data show it: active = GI50 up to about 1.1 µM and inactive = higher.

Legend:
Assay in all cases: NCI-60 cell line screen, 48 h
U-251 = test system: U-251
HCT-116 = test system: HCT-116
SF-268 = test system: SF-268
EKVX = test system: EKVX
OVCAR-8 = test system: OVCAR-8
OVCAR-3 = test system: OVCAR-3
HOP-92 = test system: HOP-92
A498 = test system: A498
M14 = test system: M14
K562 = test system: K562
Malme-3M = test system: Malme-3M
SK-OV-3 = test system: SK-OV-3
HL-60 = test system: HL-60
UACC-62 = test system: UACC-62
KM12 = test system: KM12
SR = test system: SR
RPMI-8226 = test system: RPMI-8226
TK-10 = test system: TK-10
NCI-H522 = test system: NCI-H522
HCC 2998 = test system: HCC 2998

Measured: GI50

CCCN(CCC)c1cc2c(cc1F)c(=O)c(C(=O)O)cn2-c1ccc(N2CCN(C)CC2)cn1
inactive: U-251 25.5 µM | HCT-116 15.3 µM | SF-268 15.6 µM | EKVX 16.7 µM | OVCAR-8 14.3 µM | OVCAR-3 15.7 µM | HOP-92 13 µM | A498 19.8 µM | M14 16.9 µM | K562 17.8 µM | Malme-3M 13.3 µM | SK-OV-3 14.3 µM | HL-60 6.18 µM | UACC-62 18.5 µM | KM12 15.1 µM | SR 15.7 µM | RPMI-8226 17.7 µM | TK-10 10.4 µM | NCI-H522 11.5 µM

CCOC(=O)C(Cc1ccc(N=NN(C)C)cc1)NC(=O)CC1c2ccccc2-c2ccccc21 (configuration not stated)
inactive: U-251 39.7 µM | HCT-116 > 100 µM | SF-268 > 100 µM | EKVX > 100 µM | OVCAR-8 > 100 µM | OVCAR-3 36.1 µM | A498 > 100 µM | M14 > 100 µM | K562 75.2 µM | Malme-3M > 100 µM | SK-OV-3 > 100 µM | HL-60 > 100 µM | UACC-62 42.9 µM | KM12 > 100 µM | SR 48.9 µM | HCC 2998 > 100 µM | RPMI-8226 41.6 µM | TK-10 > 100 µM | NCI-H522 56.2 µM

CSc1nc2c(c(N3CCOCC3)n1)C(O)n1c(nc3ccccc31)S2 (configuration not stated)
inactive: U-251 20.8 µM | HCT-116 > 100 µM | SF-268 26.2 µM | EKVX > 100 µM | OVCAR-8 31.1 µM | OVCAR-3 69.2 µM | HOP-92 72.3 µM | A498 97.1 µM | M14 > 100 µM | Malme-3M 52.2 µM | SK-OV-3 96.2 µM | HL-60 > 100 µM | UACC-62 > 100 µM | KM12 53.6 µM | SR 51.2 µM | HCC 2998 > 100 µM | RPMI-8226 4.72 µM | TK-10 47.5 µM | NCI-H522 24.8 µM

COc1cccc2c(Nc3ccc(S(=O)(=O)Nc4ncccn4)cc3)c3ccc([N+](=O)[O-])cc3nc12
inactive: U-251 48.5 µM | HCT-116 22.4 µM | SF-268 > 100 µM | EKVX > 100 µM | OVCAR-3 > 100 µM | HOP-92 12.4 µM | A498 > 100 µM | M14 45.1 µM | K562 23 µM | Malme-3M 12.9 µM | SK-OV-3 54.6 µM | HL-60 10.4 µM | UACC-62 9.12 µM | KM12 12.5 µM | SR 1.95 µM | HCC 2998 67 µM | RPMI-8226 8.67 µM | TK-10 > 100 µM | NCI-H522 66.1 µM

CN1NC(c2ccc(Cl)cc2)=C(C#N)C(=O)CC1c1ccccc1 (configuration not stated)
inactive: U-251 > 100 µM | HCT-116 > 100 µM | SF-268 > 100 µM | HOP-92 > 100 µM | A498 > 100 µM | SK-OV-3 > 100 µM | HL-60 > 100 µM | KM12 > 100 µM | SR > 100 µM | RPMI-8226 > 100 µM | TK-10 > 100 µM | NCI-H522 79.4 µM

CC(=O)NNc1nc(C)c(C(=O)NNC(=O)C(=O)Nc2ccccc2C#N)s1
inactive: U-251 > 100 µM | HCT-116 > 100 µM | SF-268 > 100 µM | EKVX > 100 µM | OVCAR-8 > 100 µM | OVCAR-3 > 100 µM | HOP-92 > 100 µM | A498 > 100 µM | M14 > 100 µM | K562 > 100 µM | Malme-3M > 100 µM | SK-OV-3 > 100 µM | HL-60 > 100 µM | UACC-62 > 100 µM | KM12 50.1 µM | SR 87.1 µM | HCC 2998 > 100 µM | RPMI-8226 > 100 µM | TK-10 > 100 µM | NCI-H522 88.1 µM

Cc1ccc(S(=O)(=O)OC[C@@H]2CO2)cc1
inactive: HCT-116 > 100 µM | EKVX > 100 µM | OVCAR-8 > 100 µM | OVCAR-3 > 100 µM | HOP-92 > 100 µM | A498 > 100 µM | M14 > 100 µM | K562 > 100 µM | Malme-3M > 100 µM | HL-60 > 100 µM | KM12 > 100 µM | SR > 100 µM | HCC 2998 > 100 µM | TK-10 44.6 µM
